# Results reported in paper PMC13013135, “[^99mTc]Tc-PSMA-HSG for PSMA-targeted Hybrid Surgical Guidance: a new addition to the PSMA-I&S/I&T family” (European Journal of Nuclear Medicine and Molecular Imaging, 2025).
# Like-named read-outs stand apart in the source and are kept apart here. Square brackets hold non-standard residues; d marks the D form. Peptide text beside a SMILES is read from it. * marks the point of attachment. X1 = O=C(O)CC[C@H](NC(=O)N[C@@H](CCCCNC(=O)CCCCCCC(=O)*)C(=O)O)C(=O)O; d2Nal = N[C@H](Cc1ccc2ccccc2c1)C(=O)O; Mercaptoacetyl = O=C(CS)*
# Legend:
# PSMA = PSMA (Homo sapiens, UniProt Q04609); assay: Competitive binding (IC50) on LNCaP cells with ([^125I]I-BA)KuE as radioligand; details: for IC50: LNCaP cells, ([^125I]I-BA)KuE radioligand, free mas3-chelator
# Sequence of PSMA (Q04609 whole entry): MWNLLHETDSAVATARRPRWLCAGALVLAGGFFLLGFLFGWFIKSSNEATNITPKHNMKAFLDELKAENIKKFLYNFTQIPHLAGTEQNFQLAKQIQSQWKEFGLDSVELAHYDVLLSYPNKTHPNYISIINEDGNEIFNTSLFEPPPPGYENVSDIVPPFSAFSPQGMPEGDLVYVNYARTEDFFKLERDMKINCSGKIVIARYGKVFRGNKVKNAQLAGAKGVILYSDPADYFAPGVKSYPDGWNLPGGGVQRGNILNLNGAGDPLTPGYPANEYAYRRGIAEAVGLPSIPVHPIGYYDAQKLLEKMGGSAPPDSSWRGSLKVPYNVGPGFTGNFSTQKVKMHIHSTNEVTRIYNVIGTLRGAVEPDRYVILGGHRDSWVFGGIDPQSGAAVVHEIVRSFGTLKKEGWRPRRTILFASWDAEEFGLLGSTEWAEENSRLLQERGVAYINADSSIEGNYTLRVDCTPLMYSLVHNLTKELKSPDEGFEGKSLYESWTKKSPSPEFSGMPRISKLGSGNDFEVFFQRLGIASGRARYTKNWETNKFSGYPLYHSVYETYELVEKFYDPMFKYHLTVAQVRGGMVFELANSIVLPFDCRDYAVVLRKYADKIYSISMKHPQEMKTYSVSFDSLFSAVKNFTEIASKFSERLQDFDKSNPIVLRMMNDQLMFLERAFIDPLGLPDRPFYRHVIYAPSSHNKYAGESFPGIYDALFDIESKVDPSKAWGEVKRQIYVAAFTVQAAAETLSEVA
# Experimental: Competitive binding experiments (IC50) were carried out in accordance with an established protocol using PSMA-expressing LNCaP cells and ([^125I]I-BA)KuE as standard radioligand. […] Please see the Supplementary Material for experimental details. For IC50 determination, approximately 150.000 cells/well were seeded on 24-well plates one day prior to the experiment. For internalization studies, 125.000 cells/well in PDL-coated 24-well plates were used. Cell counting was carried out using a Corning cell counter (Cytosmart, Eindhoven, The Netherlands).
# [1] = test system: PSMA expressing LNCaP cells; assay: Dual tracer internalization assay; format: cell-based, human; details: 60 min, 37 °C, 0.5 nM tracer, normalized to ([^125I]IBA)KuE
# Experimental: Competitive binding experiments (IC50) were carried out in accordance with an established protocol using PSMA-expressing LNCaP cells and ([^125I]I-BA)KuE as standard radioligand. […] Please see the Supplementary Material for experimental details. […] The supernatant was removed, cells were washed with assay medium, and an acid wash (50 mM NaOAc in saline, pH 4.5) was performed to remove membrane-associated activity. Cells were then lysed using 1N NaOH, and internalized activity was quantified using a γ-counter. […] Tocris Bioscience, Bristol, UK) and normalized to the specific internalization observed for the radioiodinated reference compound in the same experiment. Data represent means ± SD (n=3) from three separate determinations.
# [2] = Lipophilicity, modified shake-flask method; format: physicochemical
# Experimental: The lipophilicity of [^99mTc]Tc-PSMA-HSG was determined via a modified shake-flask method as described.
# human serum = assay: Plasma protein binding (B50), ultrafiltration, human serum; format: in vitro ADME
# Experimental: (§1) A detailed experimental procedure is provided in the Supplementary Material. […] Briefly, protein solutions (maximum concentration: […] Samples were briefly vortexed and incubated for 30 min at 37 °C. […] The filter units were then removed from the centrifugal tubes and washed twice with 300 µL PBS to recover the protein fraction. The activity in the filtrate, filter and protein fraction were then quantified using a γ-counter. […] The percentages of radioligand bound to the respective proteins are represented as means ± standard deviation (SD) of three independent experiments.
# [3] = target: human serum albumin (HSA) (Homo sapiens, UniProt P02768); assay: Plasma protein binding (B50), ultrafiltration, HSA; format: in vitro ADME
# Sequence of human serum albumin (HSA) (P02768 25-609): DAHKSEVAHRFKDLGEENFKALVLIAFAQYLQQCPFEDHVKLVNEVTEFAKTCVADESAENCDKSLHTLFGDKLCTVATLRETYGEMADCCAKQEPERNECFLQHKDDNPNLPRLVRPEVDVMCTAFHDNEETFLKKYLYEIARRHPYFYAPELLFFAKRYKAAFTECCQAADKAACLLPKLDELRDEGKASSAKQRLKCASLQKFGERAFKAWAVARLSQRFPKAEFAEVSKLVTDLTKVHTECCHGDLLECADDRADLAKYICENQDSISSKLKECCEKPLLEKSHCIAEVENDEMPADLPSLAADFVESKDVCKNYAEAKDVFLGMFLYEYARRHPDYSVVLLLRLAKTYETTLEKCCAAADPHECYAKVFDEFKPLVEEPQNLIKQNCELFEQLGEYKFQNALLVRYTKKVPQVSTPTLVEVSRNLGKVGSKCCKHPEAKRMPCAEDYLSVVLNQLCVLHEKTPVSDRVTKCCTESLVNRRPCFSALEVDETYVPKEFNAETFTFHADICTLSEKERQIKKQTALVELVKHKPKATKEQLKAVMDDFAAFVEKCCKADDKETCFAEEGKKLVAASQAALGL
# Experimental: as §1
# mouse serum = assay: Plasma protein binding (B50), ultrafiltration, mouse serum; format: in vitro ADME
# Experimental: as §1
# [4] = test system: LNCaP xenograft bearing NSG mice; assay: Biodistribution in LNCaP xenograft bearing NSG mice; details: 6 h p.i., 0.1 nmol
# Experimental: The biodistribution of [^99mTc]Tc-PSMA-HSG and of the reference compound [^99mTc]Tc-PSMA-I&S was investigated in LNCaP xenograft bearing NSG mice (see supplemental information).
# Mice were injected intravenously with the respective ^99mTc-labeled tracer (24–34 MBq (fixed peptide dose of 1 nmol/mouse) or 3.7–7.6 MBq (fixed peptide doses of 0.1 nmol/mouse), respectively) and were sacrificed at 2 h (1 nmol-cohort) or 6 h p.i. (0.1 nmol-cohort), respectively. The organs of interest were dissected, and the activity concentration in weighed tissue samples was quantified using an AMG Automatic Gamma Counter (Hidex, Turku, Finland). Biodistribution data are given in %iD/g and represent means ± SD (groups of n = 5 animals). Statistical analysis (Multiple unpaired t-test) of biodistribution data and tumor/organ ratios was performed using GraphPad Prism (Boston, USA).
# To induce LNCaP tumor growth, a suspension of LNCaP cells (approx. 5 x 10^6 cells/mouse) in 200 μl of a 1:1 mixture of serum-free DMEM and Matrigel (BD Biosciences) was injected subcutaneously into the right shoulder of male NOD scid gamma (NSG) mice (6-8 weeks, in-house breeding, Dpt. of Oncology, University of Lausanne). After approximately 9 weeks, tumor size reached 4-8 mm in diameter and the mice were used for the in vivo studies.
# [5] = cited from earlier work
smiles,measurement,setting,value
CC(=O)SCC(=O)N[C@H](CO)C(=O)N[C@H](CO)C(=O)N[C@H](CO)C(=O)N[C@H](CCCCNC(=O)CCCCC[N+]1=C(/C=C/C2=CC(=C/C=C3/N(C)c4ccc(S(=O)(=O)O)cc4C3(C)C)/CCC2)C(C)(C)c2cc(S(=O)(=O)[O-])ccc21)C(=O)N[C@H](Cc1ccc(O)cc1)C(=O)N[C@H](Cc1ccc2ccccc2c1)C(=O)N[C@H](CCCCNC(=O)CCCCCCC(=O)NCCCC[C@H](NC(=O)N[C@@H](CCC(=O)O)C(=O)O)C(=O)O)C(=O)O [PSMA-HSG-Cy7-I],decrease in PSMA affinity compared to PSMA-HSG,PSMA,twofold decreased
same,IC50,PSMA,70.7 ± 10.8 nM
"CC[N+]1=C(/C=C/C=C/C=C/C=C2/N(CCCCCC(=O)NCCCC[C@@H](NC(=O)[C@@H](CO)NC(=O)[C@@H](CO)NC(=O)[C@@H](CO)NC(=O)CS)C(=O)N[C@H](Cc3ccc(O)cc3)C(=O)N[C@H](Cc3ccc4ccccc4c3)C(=O)N[C@H](CCCCNC(=O)CCCCCCC(=O)NCCCC[C@H](NC(=O)N[C@@H](CCC(=O)O)C(=O)O)C(=O)O)C(=O)O)c3ccc(S(=O)(=O)[O-])cc3C2(C)C)C(C)(C)c2cc(S(=O)(=O)O)ccc21 [[^99mTc]Tc-PSMA-HSG-Cy7-II, metal not drawn]",internalization [% of reference],[1],28 ± 7 % of reference
same,logD,[2],-2.71
same,B50 HS,human serum,121 ± 16
same,B50 HSA,[3],149 ± 14
same,B50 MS,mouse serum,53 ± 7
"C[N+]1=C(/C=C/C2=CC(=C/C=C3/N(CCCCCC(=O)NCCCC[C@@H](NC(=O)[C@@H](CO)NC(=O)[C@@H](CO)NC(=O)[C@@H](CO)NC(=O)CS)C(=O)N[C@H](Cc4ccc(O)cc4)C(=O)N[C@H](Cc4ccc5ccccc5c4)C(=O)N[C@H](CCCCNC(=O)CCCCCCC(=O)NCCCC[C@H](NC(=O)N[C@@H](CCC(=O)O)C(=O)O)C(=O)O)C(=O)O)c4ccc(S(=O)(=O)[O-])cc4C3(C)C)/CCC2)C(C)(C)c2cc(S(=O)(=O)O)ccc21 [[^99mTc]Tc-PSMA-HSG-Cy7-I, metal not drawn]",internalization [% of reference],[1],17 ± 2 % of reference
same,logD,[2],-2.63
same,B50 HS,human serum,246 ± 27
same,B50 HSA,[3],165 ± 21
same,B50 MS,mouse serum,93 ± 16
"O=C(O)CC[C@H](NC(=O)N[C@@H](CCCCNC(=O)CCCCCCC(=O)NCCCC[C@@H](NC(=O)[C@@H](Cc1ccc2ccccc2c1)NC(=O)[C@@H](Cc1ccc(O)cc1)NC(=O)[C@@H](CO)NC(=O)[C@@H](CO)NC(=O)[C@@H](CO)NC(=O)CS)C(=O)O)C(=O)O)C(=O)O [[^99mTc]Tc-PSMA-I&S, [^99mTc]Tc-mas3-y-nal-k-Sub-KuE, metal not drawn, reference compound] (Mercaptoacetyl-[dS][dS][dS][dY][d2Nal][dK](X1)-OH)",lipophilicity [logD],[2],−3.01
same,B50 HS,"human serum; human serum, molar excess of protein over radioligand for half-maximal binding, n = 3",321 ± 18
same,B50 HSA,"[3]; HSA in PBS, molar excess of protein over radioligand for half-maximal binding, n = 3",324 ± 6
same,B50 MS,"mouse serum; mouse serum, molar excess of protein over radioligand for half-maximal binding, n = 3",652 ± 77
same,"biodistribution, LNCaP tumor",[4],12.9 ± 1.4 %iD/g
same,"biodistribution, blood",[4],0.15 ± 0.03 %iD/g
same,"biodistribution, heart",[4],0.24 ± 0.05 %iD/g
same,"biodistribution, intestines",[4],1.8 ± 0.8 %iD/g
same,"biodistribution, kidneys",[4],147.0 ± 10 %iD/g
same,"biodistribution, liver",[4],0.8 ± 0.4 %iD/g
same,"biodistribution, lung",[4],2.2 ± 0.2 %iD/g
same,"biodistribution, muscle",[4],0.2 ± 0.04 %iD/g
same,"biodistribution, pancreas",[4],0.7 ± 0.1 %iD/g
same,"biodistribution, salivary glands",[4],3.2 ± 0.8 %iD/g
same,"biodistribution, spleen",[4],14.2 ± 2.0 %iD/g
same,"biodistribution, stomach",[4],0.3 ± 0.1 %iD/g
same,absorbed dose coefficient of the urinary bladder wall,[5]; patients,0.000355 mGy/MBq
same,effective dose,[5]; patients,0.0052 mSv/MBq
same,kidney absorbed dose coefficient,[5]; patients,0.0733 mGy/MBq
same,salivary gland absorbed dose coefficient,[5]; patients,0.0221 mGy/MBq
O=C(O)CC[C@H](NC(=O)N[C@@H](CCCCNC(=O)c1ccc([18F])nc1)C(=O)O)C(=O)O [[^18F]DCFPyL],effective dose,[5]; patients,0.0165 mSv/MBq
O=C([O-])CN(CCN(CC(=O)[O-])Cc1cc(CCC(=O)NCCCCCC(=O)NCCCC[C@H](NC(=O)N[C@@H](CCC(=O)O)C(=O)O)C(=O)O)ccc1[O-])Cc1cc(CCC(=O)O)ccc1[O-].[68Ga+3].[OH3+] [[^68Ga]Ga-PSMA-11],effective dose,"[5]; human, in vivo",0.023 ± 0.004 mSv/MBq
CCN1/C(=C/C=C/C=C/C=C/C2=[N+](CCCCCC(=O)NCCCC[C@@H](NC(=O)[C@@H](CO)NC(=O)[C@@H](CO)NC(=O)[C@@H](CO)NC(=O)CSC(C)=O)C(=O)N[C@H](Cc3ccc(O)cc3)C(=O)N[C@H](Cc3ccc4ccccc4c3)C(=O)N[C@H](CCCCNC(=O)CCCCCCC(=O)NCCCC[C@H](NC(=O)N[C@@H](CCC(=O)O)C(=O)O)C(=O)O)C(=O)O)c3ccc(S(=O)(=O)[O-])cc3C2(C)C)C(C)(C)c2cc(S(=O)(=O)O)ccc21 [PSMA-HSG-Cy7-II],decrease in PSMA affinity compared to PSMA-HSG,PSMA,twofold decreased
same,IC50,PSMA,73.1 ± 11.1 nM
CC(=O)SCC(=O)N[C@H](CO)C(=O)N[C@H](CO)C(=O)N[C@H](CO)C(=O)N[C@H](CCCCNC(=O)CCCCCN1/C(=C/C=C/C=C/C2=[N+](C)c3ccc(S(=O)(=O)[O-])cc3C2(C)C)C(C)(C)c2cc(S(=O)(=O)O)ccc21)C(=O)N[C@H](Cc1ccc(O)cc1)C(=O)N[C@H](Cc1ccc2ccccc2c1)C(=O)N[C@H](CCCCNC(=O)CCCCCCC(=O)NCCCC[C@H](NC(=O)N[C@@H](CCCC(=O)O)C(=O)O)C(=O)O)C(=O)O [Aad-PSMA-HSG],decrease in PSMA affinity compared to PSMA-HSG,PSMA,fifteen-fold reduction
